Results as given in US6232450A, “Inhibition of human fucosyltransferases with N-linked Lewis-x and LacNAc analogs” (The Scripps Research Institute, priority 1999, dated 2001).

What was measured:
FucT V = biological target: T1, FucT V (Homo sapiens, UniProt Q11128); assay: Test whether inhibitor is a slow substrate or an inactivator of FucT V (pre-incubation, then GDP-[U-14C]-fucose transfer); format: biochemical; details: 0.010 mM inhibitor, 2.1 munits FucT V, 0.30 mM LacNAc-b-O-(CH2)5CO2CH3, 10 mM MnCl2, 100 mM MES pH 6.0, incubation 0-80 min at room temperature
T1 sequence (Q11128 1-374): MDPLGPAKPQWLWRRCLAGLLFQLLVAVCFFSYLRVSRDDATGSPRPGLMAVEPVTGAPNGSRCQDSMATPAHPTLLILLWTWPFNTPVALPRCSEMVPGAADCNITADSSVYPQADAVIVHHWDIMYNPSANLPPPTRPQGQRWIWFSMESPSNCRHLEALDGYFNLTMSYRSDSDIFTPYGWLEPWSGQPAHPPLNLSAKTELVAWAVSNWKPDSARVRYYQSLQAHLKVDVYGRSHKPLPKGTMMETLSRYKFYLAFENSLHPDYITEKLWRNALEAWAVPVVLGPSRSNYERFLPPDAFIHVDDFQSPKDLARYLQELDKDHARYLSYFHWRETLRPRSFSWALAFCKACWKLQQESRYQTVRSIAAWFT
Procedure: A 0.350 mL solution that contained 10 mM MnCl2, 2.1 munits FucT V, 0.30 mM LacNAc-b-O-(CH2)5 CO2 CH3, 0.010 mM inhibitor (7a, 7b, 7c, 8a, 8b, or 8c), and 100 mM MES (pH 6.0). This solution was subject to incubation at room temperature for various time periods (0, 3, 10, 20, 30, 60, 80 min). After the incubation time, a 0.050 mL aliquot was removed and GDP-[U-^14 C]-fucose was added to a final concentration of 0.050 mM to initiate the fucosyltransfer reaction. After a 30 minute reaction time period, the solution was passed through a Dowex 1 column and the amount of product determined.

[1] = known from literature (Hanozet et al.); cited from earlier work

| Compound | slow substrate or inactivator of FucT V (FucT V) | pKa [1] |
| --- | --- | --- |
| CCCO[C@@H]1O[C@H](COCc2ccccc2)[C@@H](O)[C@H](NCCN2[C@H](COCc3ccccc3)[C@@H](OCc3ccccc3)[C@H](OCc3ccccc3)[C@H](OCc3ccccc3)[C@@H]2C)[C@H]1NC(C)=O [7a] | not a slow substrate or an inactivator |  |
| CCCO[C@@H]1O[C@H](CO)[C@@H](O)[C@H](N(C)CCN2[C@H](CO)[C@@H](O)[C@H](O)[C@H](O)[C@@H]2C)[C@H]1NC(C)=O [7b] | not a slow substrate or an inactivator |  |
| CCCO[C@@H]1O[C@H](CO)[C@@H](O)[C@H](NCCN2[C@H](CO)[C@@H](O)[C@H](O)[C@H](O)[C@@H]2C)[C@H]1NC(C)=O [7c] | not a slow substrate or an inactivator |  |
| C[C@@H]1N[C@H](COCc2ccccc2)[C@@H](OCc2ccccc2)[C@H](OCc2ccccc2)[C@@H]1OCc1ccccc1 [compound 5] |  | unusually low |

Further lines, with some results ahead:

| slow substrate or inactivator of FucT V (FucT V) | Compound | pKa [1] |
| --- | --- | --- |
| not a slow substrate or an inactivator | CCCO[C@@H]1O[C@H](COCc2ccccc2)[C@@H](O[C@@H]2O[C@H](CO)[C@H](O)[C@H](O)[C@H]2O)[C@H](NCCN2[C@H](COCc3ccccc3)[C@@H](OCc3ccccc3)[C@H](OCc3ccccc3)[C@H](OCc3ccccc3)[C@@H]2C)[C@H]1NC(C)=O [8a] |  |
| not a slow substrate or an inactivator | CCCO[C@@H]1O[C@H](CO)[C@@H](O[C@@H]2O[C@H](CO)[C@H](O)[C@H](O)[C@H]2O)[C@H](N(C)CCN2[C@H](CO)[C@@H](O)[C@H](O)[C@H](O)[C@@H]2C)[C@H]1NC(C)=O [8b] |  |
| not a slow substrate or an inactivator | CCCO[C@@H]1O[C@H](CO)[C@@H](O[C@@H]2O[C@H](CO)[C@H](O)[C@H](O)[C@H]2O)[C@H](NCCN2[C@H](CO)[C@@H](O)[C@H](O)[C@H](O)[C@@H]2C)[C@H]1NC(C)=O [8c] |  |
